According to patent US9522194B2, “Methods of using monomethylvaline compositions having phenylalanine carboxy modifications at the C-terminus” (priority 2005, dated 2016):
Non-standard residues stand in square brackets, D forms with d. Residues, ends and D or L forms follow the SMILES beside them. ξ: configuration not given here. *: point of attachment. Dolaproine = CO[C@@H]([C@@H]1CCCN1)[C@@H](C)C(=O)O; Dil = CC[C@H](C)[C@H](NC)[C@@H](CC(=O)O)OC; X1 = c1ccc(C[C@H](N*)c2nn[nH]n2)cc1; X2 = C[C@@H](N*)[C@@H](O)c1ccccc1; NMeV = CN[C@H](C(=O)O)C(C)C; ξNMeV = CNC(C(=O)O)C(C)C

Experiments:
[1] = system: breast carcinoma cell line H3396; assay: In vitro activity of free drugs; assay type: cell-based; settings: free drug
Experimental: The cytotoxic activity of MMAZ and other compounds is evaluated on the Lewis Y positive cell lines OVCAR-3, H3396 breast carcinoma, L2987 lung carcinoma and LS174t colon carcinoma Lewis Y positive cell lines can be assayed for cytotoxicity. To evaluate the cytotoxicity of compounds, cells can be seeded at approximately 5-10,000 per well in 150 μl of culture medium then treated with graded doses of compounds in quadruplicates at the initiation of assay. Cytotoxicity assays are usually carried out for 96 hours after addition of test compounds. Fifty μl of resazurin dye may be added to each well during the last 4 to 6 hours of the incubation to assess viable cells at the end of culture. Dye reduction can be determined by fluorescence spectrometry using the excitation and emission wavelengths of 535 nm and 590 nm, respectively. For analysis, the extent of resazurin reduction by the treated cells can be compared to that of the untreated control cells.

[2] = system: renal cell carcinoma cell line Caki-1; assay: In vitro cytotoxicity of free drugs (resazurin, 96 h); assay type: cell-based; settings: free drug, read-out: IC50s (nM) Caki-1
[3] = system: anaplastic large cell lymphoma cell line Karpas 299; assay: as above; assay type: cell-based, human; settings: free drug, read-out: IC50s (nM) Karpas 299
[4] = system: Hodgkin's disease cell line L540cy; assay: as above; assay type: cell-based; settings: free drug, read-out: IC50s (nM) L540cy
[5] = system: colon carcinoma cell line HCT-116; assay: as above; assay type: cell-based; settings: free drug, read-out: IC50s (nM) HCT-116
[6] = system: Hodgkin's disease cell line L428; assay: as above; assay type: cell-based; settings: free drug, read-out: IC50s (nM) L428
[7] = system: renal cell carcinoma cell line 786-O; assay: as above; assay type: cell-based; settings: free drug, read-out: IC50s (nM) 786-O
[8] = system: L428 cell line (CD70+, CD30+); assay: In vitro efficacy of antibody drug conjugates, 96 hours incubation; assay type: cell-based
[9] = system: CD30+ Karpas 299 cell line; assay: as above; assay type: cell-based, human; settings: cAC10 (chimeric anti-CD30) conjugate of the named linker-drug, 4 drugs per antibody
Experimental: (§1) To evaluate the cytotoxicity of Exemplary Conjugates, cells are seeded at approximately 5-10,000 per well in 150 μl of culture medium then treated with graded doses of Exemplary Conjugates in quadruplicates at the initiation of assay. Cytotoxicity assays are carried out for 96 hours after addition of test compounds. Fifty μl of the resazurin dye is added to each well during the last 4 to 6 hours of the incubation to assess viable cells at the end of culture. Dye reduction is determined by fluorescence spectrometry using the excitation and emission wavelengths of 535 nm and 590 nm, respectively. For analysis, the extent of resazurin reduction by the treated cells is compared to that of the untreated control cells.
(§2) IC50 values are defined as the concentration where growth is reduced 50% compared with untreated control cultures. Each concentration is tested in quadruplicate. The conjugates contain 4 drugs per antibody.

[10] = system: CD70+ 786-O renal cell carcinoma cell line; assay: as above; assay type: cell-based
CD30+ L540cy cell line = assay: as above; assay type: cell-based; settings: cAC10 (chimeric anti-CD30) conjugate of the named linker-drug, 4 drugs per antibody
Experimental: as §1, §2

[11] = system: CD70+ Caki-1 renal cell carcinoma cell line; assay: as above; assay type: cell-based

Row | Compound | IC50 of cAC10 ADCs (ng/mL) L428 [8] [ng/mL] | IC50 of cAC10 ADCs (ng/mL) Karpas 299 [9] [ng/mL] | IC50 of c1F6 ADCs (ng/mL) 786-O [10] [ng/mL] | IC50 of cAC10 ADCs (ng/mL) L540cy (CD30+ L540cy cell line) [ng/mL] | IC50 of c1F6 ADCs (ng/mL) Caki-1 [11] [ng/mL] | other results
1 | CC[C@H](C)[C@@H]([C@@H](CC(=O)N1CCC[C@H]1[C@H](OC)[C@@H](C)C(=O)N[C@@H](Cc1ccccc1)c1nn[nH]n1)OC)N(C)C(=O)[C@@H](NC(=O)C(NC)C(C)C)C(C)C (some centres unmarked) [Drug 1003] (H-[ξNMeV]V[Dil][Dolaproine]-X1) | – | – | – | – | – | IC50 ([1]; Homo sapiens): 6 nM
2 | CC[C@H](C)[C@@H]([C@@H](CC(=O)N1CCC[C@H]1[C@H](OC)[C@@H](C)C(=O)N[C@H](C)[C@@H](O)c1ccccc1)OC)N(C)C(=O)[C@@H](NC(=O)[C@@H](NC)C(C)C)C(C)C [MMAE] (H-[NMeV]V[Dil][Dolaproine]-X2) | – | – | – | – | – | IC50 [1]: 0.7 nM
3 | CC[C@H](C)[C@@H]([C@@H](CC(=O)N1CCC[C@H]1[C@H](OC)[C@@H](C)C(=O)N[C@@H](Cc1ccccc1)C(=O)O)OC)N(C)C(=O)[C@@H](NC(=O)[C@@H](NC)C(C)C)C(C)C [MMAF, N-methylvaline-valine-dolaisoleuine-dolaproine-phenylalanine] (H-[NMeV]V[Dil][Dolaproine]F-OH) | – | – | – | – | – | IC50 [2]: 234 nM; IC50 [1]: 15 nM; IC50 [3]: 240 nM; IC50 [4]: 130 nM; IC50 [5]: 310 nM; IC50 [6]: 58 nM; IC50 [7]: 380 nM
4 | CO[C@@]12[C@H](COC(N)=O)C3=C(C(=O)C(C)=C(N)C3=O)N1C[C@@H]1N[C@@H]12 [Mitomycin C] | – | – | – | – | – | IC50 [2]: 14.5 nM; IC50 [3]: 105 nM; IC50 [4]: 134 nM; IC50 [5]: 166 nM; IC50 [6]: 187 nM; IC50 [7]: 32.3 nM
5 | MaleimidocaproylNMeValValDilDapphosphonoPhe [mc-MMApF-A] | 0.423 | 10.9 | 3.5 | 2.7 | 8.9 | –
6 | MaleimidocaproylNMeValValDilDapphosphonoPhe [mc-MMApF-B] | >5000 | >5000 | >1000 | >5000 | >1000 | –
7 | MaleimidocaproylValCitp-aminobenzoyl-NMeValValDil-DapphosphonoPhe [mc-vc-PAB-MMApF] | – | – | >1000 | – | 29.5 | –
8 | mc-MMAF | 1.3 | 7.6 | 135 | 3.4 | 47.3 | –
